{"source": "patent US20240142467A1", "about": "“Use of Biomarkers in the Treatment of Fibrotic Conditions with a PDE4B-inhibitor” (Boehringer Ingelheim International GmbH, priority 2022, published 2024)", "key": {"[1]": {"tested_on": "IPF-rc-stimulated primary human small airway epithelial cells (SAEC)", "experiment": "Biomarker release of IPF-rc-stimulated small airway epithelial cells (ELISA of supernatants)", "type": "cell-based", "details": "for inhibition at 10 µM / pIC50: Homo sapiens; for inhibition at 10 µM: SAEC, highest concentration 10 μM; for pIC50: SAEC from 5 donors, 30 min pre-stimulation, supernatants 72 hrs after stimulation", "description": "Small airway epithelial cells of primary human origin at passage 4 were seeded in PneumaCult-Ex Plus complete medium onto rat tail collagen type I (30 μg/mL in PBS) coated 24-well plates.\nAfter incubation for 24 hrs at 37° C. and 5% CO2 cells were pre-stimulated with the PDE4-inhibitor of formula A′ for 30 min in different concentrations in PneumaCult-Ex Plus starving medium.\nAfterwards an IPF-relevant cytokine cocktail (Schruf E, Schroeder V, Le H Q, Schönberger T, Raedel D, Stewart E L, Fundel-Clemens K, Bluhmki T, Weigle S, Schuler M, Thomas M J, Heilker R, Webster M J, Dass M, Frick M, Stierstorfer B, Quast K, Garnett J P. Recapitulating idiopathic pulmonary fibrosis related alveolar epithelial dysfunction in a human iPSC-derived air-liquid interface model. FASEB J. 2020 June; 34(6):7825-7846) was added to induce fibrotic changes. 72 hrs after stimulation supernatants were collected and analyzed using R&D DuoSet ELISAs following the manufacturers protocol.\nTo determine the inhibitory potency of the PDE4-inhibitor of formula A′ on biomarker release of IPF-rc-stimulated primary human small airway epithelial cells, the supernatants of the cell culture from 5 different donors were analyzed."}, "[2]": {"tested_on": "patients with idiopathic pulmonary fibrosis", "experiment": "Phase 2 trial NCT04419506: change from baseline in FVC at 12 weeks", "type": "in vivo, human", "details": "for lung function (FVC) compared to placebo: non-AF-background and AF-background groups; for lung function (FVC) compared to placebo / mean change in FVC from baseline to Week 12 / median change in FVC: 18 mg twice daily; for probability that the compound is superior to placebo: Bayesian borrowing analysis; for median change in FVC / median difference in FVC change vs placebo: Bayesian borrowing", "description": "Patients with a usual interstitial pneumonia (UIP) or probable UIP pattern on high-resolution computed tomography consistent with idiopathic pulmonary fibrosis, confirmed by central review, were eligible (Raghu et al, AM j Respir Crit Care Med 2019; 200:1089-1092). Patients also had forced FVC ≥45% predicted, and diffusing capacity of the lungs for carbon monoxide (DLco) corrected for hemoglobin 25-<80% predicted. Patients were permitted to continue antifibrotic therapy (nintedanib or pirfenidone) if they had been receiving a stable dose for at least 8 weeks prior to screening. Patients with airways obstruction, recent respiratory tract infection, or a history of suicidal behavior in the past 2 years, were excluded.\nThe primary endpoint—change from baseline in FVC at Week 12—was evaluated separately in patients without and with background antifibrotics at baseline, and included all data collected while on treatment. The primary analysis was based on a Bayesian borrowing approach in order to incorporate historical data for the placebo arms within the groups treated without or with background antifibrotics via meta-analytic predictive priors that were made robust against prior-data conflicts (Schmidli et al, Biometrics 2014 70: 1023-1032). A vaguely informative prior was used for the arms using the PDE4 inhibitor of formula A′ (Compound of formula A′ in the following). The primary endpoint analysis was conducted in a two-step procedure. In the first step, the data from the current trial were analyzed with a restricted maximum likelihood-based approach using a mixed model with repeated measurements (MMRM). The analysis included the fixed, categorical effect of treatment at each visit, and the fixed, continuous effects of baseline FVC at each visit. Visit was treated as the repeated measure, with an unstructured covariance structure used to model the within-patient measurements. Based on this model, the adjusted mean changes from baseline in FVC at 12 weeks (and the related standard error) were calculated for the Compound of formula A′ and placebo arms within the patient groups without and with background antifibrotics. In the second step, the adjusted means in the placebo arms were combined with the meta-analytic predictive priors derived based on the clinical trials in the nintedanib clinical development program in idiopathic pulmonary fibrosis. In order to evaluate the treatment effects in each group, the posterior distribution for the treatment difference of the compound of formula A′ versus placebo with respect to the primary endpoint was used. The median of the posterior distribution for the treatment difference (and 95% credible intervals) was calculated as the primary analysis, and posterior probabilities that the treatment difference was higher than different boundaries were reported.\nMissing data for the primary analysis (continuous endpoint) were not imputed. The MMRM analysis allows for missing data, assuming they are missing at random. Sensitivity analyses were conducted to investigate the potential effect of missing data as well as early discontinuation via a treatment policy strategy, and a pooled analysis combining all patients irrespective of background treatment with antifibrotics.\nAs this was an exploratory trial, no confirmatory testing and adjustment for multiplicity was planned. The sample size was chosen based on the evaluations of posterior probabilities for the change from baseline in FVC at Week 12, assuming a standard deviation of 200 mL and treatment differences of 70 mL and 20 mL in the patients treated without or with background antifibrotics, respectively."}, "[3]": {"details": "with background antifibrotics, Week 12"}, "[4]": {"details": "without background antifibrotics, Week 12"}}, "note": "pIC50: −log10 of the molar value. Like-named read-outs stand apart in the source and are kept apart here."}
{"smiles": "[O-][S@+]1CCc2nc(N3CCC(c4ncc(Cl)cn4)CC3)nc(NC3(CO)CCC3)c21", "note": "[Compound of formula A′]", "values": [{"measurement": "inhibition at 10 µM", "setting": "[1]; read-out: maximal inhibition of CTGF release", "result": 75, "unit": "%"}, {"measurement": "inhibition at 10 µM", "setting": "[1]; read-out: maximal inhibition of MMP7 release", "result": 63, "unit": "%"}, {"measurement": "inhibition at 10 µM", "setting": "[1]; read-out: maximal inhibition of OPN release", "result": 67, "unit": "%"}, {"measurement": "inhibition at 10 µM", "setting": "[1]; read-out: maximal inhibition of sICAM release", "result": 39, "unit": "%"}, {"measurement": "pIC50", "setting": "[1]; read-out: IC50 of IPF-rc-induced release of CTGF", "result": "~6.43"}, {"measurement": "pIC50", "setting": "[1]; read-out: IC50 of IPF-rc-induced release of MMP7", "result": "~5.36"}, {"measurement": "pIC50", "setting": "[1]; read-out: IC50 of IPF-rc-induced release of OPN", "result": "~5.96"}, {"measurement": "pIC50", "setting": "[1]; read-out: IC50 of IPF-rc-induced release of sICAM", "result": "~6.27"}, {"measurement": "inhibition of the release of PAI1 (plasminogen activator inhibitor 1)", "setting": "[1]; IPF-rc-stimulated SAEC", "result": "concentration dependent manner"}, {"measurement": "lung function (FVC) compared to placebo", "setting": "[2]", "result": "stabilized lung function"}, {"measurement": "lung function (FVC) compared to placebo", "setting": "[2]; listed as PDE4-inhibitor of formula A′", "result": "significantly slowed decrease in lung function"}, {"measurement": "adjusted mean change from baseline in FVC after 12 weeks", "setting": "[2]; pooled group with and without background antifibrotics, MMRM", "result": "+4.6 ml"}, {"measurement": "overall treatment effect on FVC (difference vs placebo)", "setting": "[2]; pooled group with and without background antifibrotics, MMRM, Week 12", "result": 88.4, "unit": "mL"}, {"measurement": "probability that the compound is superior to placebo", "setting": "[2]; with background antifibrotics", "result": 98.6, "unit": "%"}, {"measurement": "mean change in FVC from baseline to Week 12", "setting": "[2]; with background antifibrotics, MMRM", "result": "+2.7 mL"}, {"measurement": "difference in mean FVC change vs placebo", "setting": "[2]; with background antifibrotics, MMRM, Week 12", "result": 80.4, "unit": "mL"}, {"measurement": "median change in FVC", "setting": "[2]; [3]", "result": "+2.7 mL"}, {"measurement": "median difference in FVC change vs placebo", "setting": "[2]; [3]", "result": 62.4, "unit": "mL"}, {"measurement": "probability that the compound is superior to placebo", "setting": "[2]; without background antifibrotics", "result": 99.8, "unit": "%"}, {"measurement": "mean change in FVC from baseline to Week 12", "setting": "[2]; without background antifibrotics, MMRM", "result": "+6.1 mL"}, {"measurement": "difference in mean FVC change vs placebo", "setting": "[2]; without background antifibrotics, MMRM, Week 12", "result": 101.7, "unit": "mL"}, {"measurement": "median change in FVC", "setting": "[2]; [4]", "result": "+5.7 mL"}, {"measurement": "median difference in FVC change vs placebo", "setting": "[2]; [4]", "result": 88.4, "unit": "mL"}]}
